Data from ChEMBL document CHEMBL4800731, “Data for DCP probe JNJ-65355394” (2021).
The source made the active and inactive calls. The rule behind the calls is not given here.

Key:
[1] = molecular target: Sodium-dependent dopamine transporter (Homo sapiens, UniProt Q01959); conditions: Compound concentration 10.0 uM
[2] = molecular target: T1, 5-hydroxytryptamine receptor 1A (Homo sapiens) (UniProt P08908); conditions: Compound concentration 10.0 uM
T1 sequence (whole entry): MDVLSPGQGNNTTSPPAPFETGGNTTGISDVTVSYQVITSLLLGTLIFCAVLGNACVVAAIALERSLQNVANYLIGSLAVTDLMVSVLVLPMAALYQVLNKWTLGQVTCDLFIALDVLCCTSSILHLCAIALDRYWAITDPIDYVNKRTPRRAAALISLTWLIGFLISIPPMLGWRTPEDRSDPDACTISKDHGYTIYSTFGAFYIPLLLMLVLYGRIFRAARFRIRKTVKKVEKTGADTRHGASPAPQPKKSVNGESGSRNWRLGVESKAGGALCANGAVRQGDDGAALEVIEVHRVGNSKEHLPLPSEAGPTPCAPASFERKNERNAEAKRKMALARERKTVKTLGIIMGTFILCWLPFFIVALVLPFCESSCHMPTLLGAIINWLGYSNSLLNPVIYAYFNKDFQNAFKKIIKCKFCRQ

[3] = molecular target: Sodium-dependent serotonin transporter (Homo sapiens, UniProt P31645); conditions: Compound concentration 10.0 uM
[4] = molecular target: T2, Alpha-1B adrenergic receptor (Homo sapiens) (UniProt P35368); conditions: Compound concentration 10.0 uM
T2 sequence (whole entry): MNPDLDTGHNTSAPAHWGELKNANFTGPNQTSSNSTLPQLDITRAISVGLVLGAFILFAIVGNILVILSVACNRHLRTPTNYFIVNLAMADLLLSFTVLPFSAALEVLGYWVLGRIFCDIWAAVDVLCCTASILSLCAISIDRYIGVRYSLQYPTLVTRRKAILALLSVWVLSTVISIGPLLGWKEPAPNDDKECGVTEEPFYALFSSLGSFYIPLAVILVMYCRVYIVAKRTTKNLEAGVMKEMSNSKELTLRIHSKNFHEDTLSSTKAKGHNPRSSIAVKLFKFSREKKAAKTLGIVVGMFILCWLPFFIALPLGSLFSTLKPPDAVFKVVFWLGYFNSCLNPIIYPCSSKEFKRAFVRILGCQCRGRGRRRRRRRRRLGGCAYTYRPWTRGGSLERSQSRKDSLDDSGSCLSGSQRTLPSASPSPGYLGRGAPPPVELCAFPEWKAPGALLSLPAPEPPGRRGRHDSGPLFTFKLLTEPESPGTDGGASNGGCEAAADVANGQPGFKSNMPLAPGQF

[5] = molecular target: D(4) dopamine receptor (Homo sapiens) (UniProt P21917); conditions: Compound concentration 10.0 uM
D(4) dopamine receptor (Homo sapiens), sequence (P21917 whole entry): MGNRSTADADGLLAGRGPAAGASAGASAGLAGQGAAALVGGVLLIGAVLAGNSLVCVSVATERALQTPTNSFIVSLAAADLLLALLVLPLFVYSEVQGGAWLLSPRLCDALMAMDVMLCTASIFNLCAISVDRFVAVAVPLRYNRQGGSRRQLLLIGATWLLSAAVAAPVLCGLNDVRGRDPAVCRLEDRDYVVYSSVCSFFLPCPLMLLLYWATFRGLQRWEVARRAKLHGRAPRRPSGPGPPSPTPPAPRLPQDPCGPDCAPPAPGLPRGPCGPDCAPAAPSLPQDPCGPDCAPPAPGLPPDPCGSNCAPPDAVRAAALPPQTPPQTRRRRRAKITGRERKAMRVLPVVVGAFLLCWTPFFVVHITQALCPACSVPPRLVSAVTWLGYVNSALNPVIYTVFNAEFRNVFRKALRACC

[6] = molecular target: Sodium-dependent noradrenaline transporter (Homo sapiens) (UniProt P23975); conditions: Compound concentration 10.0 uM
[7] = molecular target: Muscarinic acetylcholine receptor M3 (Homo sapiens) (UniProt P20309); conditions: Compound concentration 10.0 uM
[8] = molecular target: Alpha-2A adrenergic receptor (Homo sapiens) (UniProt P08913); conditions: Compound concentration 10.0 uM
Alpha-2A adrenergic receptor (Homo sapiens), sequence (P08913 whole entry): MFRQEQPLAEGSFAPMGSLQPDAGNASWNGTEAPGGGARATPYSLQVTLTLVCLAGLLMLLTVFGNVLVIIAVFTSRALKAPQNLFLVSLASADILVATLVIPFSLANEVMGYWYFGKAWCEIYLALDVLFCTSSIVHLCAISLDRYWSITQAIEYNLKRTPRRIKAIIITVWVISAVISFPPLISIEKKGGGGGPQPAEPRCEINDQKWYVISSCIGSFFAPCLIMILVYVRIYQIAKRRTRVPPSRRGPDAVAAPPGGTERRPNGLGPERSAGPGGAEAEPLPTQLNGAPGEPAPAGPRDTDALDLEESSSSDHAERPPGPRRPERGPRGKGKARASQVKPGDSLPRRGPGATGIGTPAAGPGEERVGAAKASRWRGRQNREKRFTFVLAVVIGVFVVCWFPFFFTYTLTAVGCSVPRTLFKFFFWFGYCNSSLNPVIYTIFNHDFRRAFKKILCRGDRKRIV

[9] = molecular target: 5-hydroxytryptamine receptor 1B (Homo sapiens) (UniProt P28222); conditions: Compound concentration 10.0 uM
5-hydroxytryptamine receptor 1B (Homo sapiens), sequence (P28222 whole entry): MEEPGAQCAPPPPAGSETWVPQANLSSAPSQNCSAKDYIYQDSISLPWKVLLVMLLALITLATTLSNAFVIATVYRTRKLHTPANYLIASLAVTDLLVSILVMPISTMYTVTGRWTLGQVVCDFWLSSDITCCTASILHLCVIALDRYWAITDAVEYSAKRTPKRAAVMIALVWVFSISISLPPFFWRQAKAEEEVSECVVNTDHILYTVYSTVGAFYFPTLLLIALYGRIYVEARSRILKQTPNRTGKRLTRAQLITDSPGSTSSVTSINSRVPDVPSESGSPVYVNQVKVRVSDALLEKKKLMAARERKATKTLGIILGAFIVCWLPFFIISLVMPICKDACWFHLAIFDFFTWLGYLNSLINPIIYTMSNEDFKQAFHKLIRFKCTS

[10] = molecular target: 5-hydroxytryptamine receptor 1D (Homo sapiens) (UniProt P28221); conditions: Compound concentration 10.0 uM
5-hydroxytryptamine receptor 1D (Homo sapiens), sequence (P28221 whole entry): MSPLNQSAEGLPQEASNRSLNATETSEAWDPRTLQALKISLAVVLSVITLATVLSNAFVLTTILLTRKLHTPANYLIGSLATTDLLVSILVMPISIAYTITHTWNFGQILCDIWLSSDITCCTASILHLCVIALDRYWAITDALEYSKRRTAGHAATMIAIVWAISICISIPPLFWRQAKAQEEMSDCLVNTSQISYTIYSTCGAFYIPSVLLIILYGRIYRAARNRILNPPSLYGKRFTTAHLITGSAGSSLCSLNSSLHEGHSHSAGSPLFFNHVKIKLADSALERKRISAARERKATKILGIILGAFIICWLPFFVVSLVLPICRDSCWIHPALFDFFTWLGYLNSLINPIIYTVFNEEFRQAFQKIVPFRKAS

[11] = molecular target: Delta-type opioid receptor (Homo sapiens) (UniProt P41143); conditions: Compound concentration 10.0 uM
[12] = molecular target: Alpha-1D adrenergic receptor (Homo sapiens) (UniProt P25100); conditions: Compound concentration 10.0 uM
[13] = molecular target: Muscarinic acetylcholine receptor M4 (Homo sapiens) (UniProt P08173); conditions: Compound concentration 10.0 uM
Muscarinic acetylcholine receptor M4 (Homo sapiens), sequence (P08173 whole entry): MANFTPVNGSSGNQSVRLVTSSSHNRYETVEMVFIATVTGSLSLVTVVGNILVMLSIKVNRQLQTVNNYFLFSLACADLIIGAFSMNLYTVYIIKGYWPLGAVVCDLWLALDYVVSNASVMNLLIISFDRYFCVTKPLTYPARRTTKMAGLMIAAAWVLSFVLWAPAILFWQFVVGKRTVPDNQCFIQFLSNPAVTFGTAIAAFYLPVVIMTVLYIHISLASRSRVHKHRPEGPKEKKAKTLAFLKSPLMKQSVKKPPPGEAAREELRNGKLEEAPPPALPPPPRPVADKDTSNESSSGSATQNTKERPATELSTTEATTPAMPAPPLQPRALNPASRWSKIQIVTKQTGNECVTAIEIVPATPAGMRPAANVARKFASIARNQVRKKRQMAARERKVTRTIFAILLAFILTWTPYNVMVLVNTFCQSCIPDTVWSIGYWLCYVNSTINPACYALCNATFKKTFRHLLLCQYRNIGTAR

[14] = molecular target: Sigma non-opioid intracellular receptor 1 (Homo sapiens, UniProt Q99720); conditions: Compound concentration 10.0 uM
Sigma non-opioid intracellular receptor 1, sequence (Q99720 whole entry): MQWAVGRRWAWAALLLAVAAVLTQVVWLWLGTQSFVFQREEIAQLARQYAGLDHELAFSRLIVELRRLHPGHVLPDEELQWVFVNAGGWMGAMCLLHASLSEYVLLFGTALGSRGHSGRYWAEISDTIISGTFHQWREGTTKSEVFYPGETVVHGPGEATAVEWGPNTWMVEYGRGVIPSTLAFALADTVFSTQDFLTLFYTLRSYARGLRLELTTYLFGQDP

Protein O-GlcNAcase = molecular target: T3, Protein O-GlcNAcase (Homo sapiens, UniProt O60502); assay: Fluorescence-based enzymatic assay
T3 sequence (O60502 whole entry): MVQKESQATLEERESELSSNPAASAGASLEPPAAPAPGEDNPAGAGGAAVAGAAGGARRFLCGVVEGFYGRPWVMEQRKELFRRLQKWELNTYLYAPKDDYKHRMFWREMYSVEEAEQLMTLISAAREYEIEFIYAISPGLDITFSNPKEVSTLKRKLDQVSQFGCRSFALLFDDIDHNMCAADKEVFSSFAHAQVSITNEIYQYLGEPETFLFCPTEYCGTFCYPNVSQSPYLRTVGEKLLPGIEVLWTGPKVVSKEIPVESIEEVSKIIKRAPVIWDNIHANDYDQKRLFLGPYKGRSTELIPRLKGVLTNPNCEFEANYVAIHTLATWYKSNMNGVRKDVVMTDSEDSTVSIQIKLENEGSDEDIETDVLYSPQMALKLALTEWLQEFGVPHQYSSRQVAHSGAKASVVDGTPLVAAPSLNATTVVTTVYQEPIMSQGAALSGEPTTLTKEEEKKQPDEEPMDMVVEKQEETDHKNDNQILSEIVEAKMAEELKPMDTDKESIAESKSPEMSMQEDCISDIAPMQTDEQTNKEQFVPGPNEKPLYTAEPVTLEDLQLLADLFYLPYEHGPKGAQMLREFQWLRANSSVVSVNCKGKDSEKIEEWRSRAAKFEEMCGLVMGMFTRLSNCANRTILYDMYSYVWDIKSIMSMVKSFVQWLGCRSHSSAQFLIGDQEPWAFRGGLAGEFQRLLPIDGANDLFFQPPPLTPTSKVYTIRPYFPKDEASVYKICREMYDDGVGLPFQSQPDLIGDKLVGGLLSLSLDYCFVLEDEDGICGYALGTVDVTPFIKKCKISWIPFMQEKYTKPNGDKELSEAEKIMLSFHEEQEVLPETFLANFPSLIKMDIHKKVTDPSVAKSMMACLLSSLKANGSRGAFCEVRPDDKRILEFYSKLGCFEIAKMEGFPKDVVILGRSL

[15] = molecular target: D(2) dopamine receptor (Homo sapiens) (UniProt P14416); conditions: Compound concentration 10.0 uM
D(2) dopamine receptor (Homo sapiens), sequence (P14416 whole entry): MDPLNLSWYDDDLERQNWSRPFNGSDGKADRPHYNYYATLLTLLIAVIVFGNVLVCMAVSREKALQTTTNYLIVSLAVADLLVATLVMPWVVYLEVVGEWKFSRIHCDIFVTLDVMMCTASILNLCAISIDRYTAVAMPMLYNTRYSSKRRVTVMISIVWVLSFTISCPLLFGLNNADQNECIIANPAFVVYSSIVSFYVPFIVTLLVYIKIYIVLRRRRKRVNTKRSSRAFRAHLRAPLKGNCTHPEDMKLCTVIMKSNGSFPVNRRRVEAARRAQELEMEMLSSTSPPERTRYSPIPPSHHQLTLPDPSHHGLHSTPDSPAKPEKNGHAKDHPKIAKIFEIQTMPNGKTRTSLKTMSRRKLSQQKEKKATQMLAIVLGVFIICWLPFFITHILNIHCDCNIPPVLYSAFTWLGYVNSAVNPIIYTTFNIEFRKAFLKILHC

[16] = molecular target: Alpha-1A adrenergic receptor (Homo sapiens) (UniProt P35348); conditions: Compound concentration 10.0 uM
Alpha-1A adrenergic receptor (Homo sapiens), sequence (P35348 whole entry): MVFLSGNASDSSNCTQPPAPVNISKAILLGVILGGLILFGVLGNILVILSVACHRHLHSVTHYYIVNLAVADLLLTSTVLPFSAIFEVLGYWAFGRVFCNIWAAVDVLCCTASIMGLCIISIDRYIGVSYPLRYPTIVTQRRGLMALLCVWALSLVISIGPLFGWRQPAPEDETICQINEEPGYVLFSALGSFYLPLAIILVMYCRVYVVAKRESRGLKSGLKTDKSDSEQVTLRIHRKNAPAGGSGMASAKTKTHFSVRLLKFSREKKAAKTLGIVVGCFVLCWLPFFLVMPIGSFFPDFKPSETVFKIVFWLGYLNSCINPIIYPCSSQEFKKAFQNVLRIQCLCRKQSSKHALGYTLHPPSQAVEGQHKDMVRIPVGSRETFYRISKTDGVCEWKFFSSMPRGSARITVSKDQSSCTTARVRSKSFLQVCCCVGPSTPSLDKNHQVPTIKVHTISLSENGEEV

[17] = molecular target: Beta-1 adrenergic receptor (Homo sapiens) (UniProt P08588); conditions: Compound concentration 10.0 uM
Beta-1 adrenergic receptor (Homo sapiens), sequence (P08588 whole entry, looked up): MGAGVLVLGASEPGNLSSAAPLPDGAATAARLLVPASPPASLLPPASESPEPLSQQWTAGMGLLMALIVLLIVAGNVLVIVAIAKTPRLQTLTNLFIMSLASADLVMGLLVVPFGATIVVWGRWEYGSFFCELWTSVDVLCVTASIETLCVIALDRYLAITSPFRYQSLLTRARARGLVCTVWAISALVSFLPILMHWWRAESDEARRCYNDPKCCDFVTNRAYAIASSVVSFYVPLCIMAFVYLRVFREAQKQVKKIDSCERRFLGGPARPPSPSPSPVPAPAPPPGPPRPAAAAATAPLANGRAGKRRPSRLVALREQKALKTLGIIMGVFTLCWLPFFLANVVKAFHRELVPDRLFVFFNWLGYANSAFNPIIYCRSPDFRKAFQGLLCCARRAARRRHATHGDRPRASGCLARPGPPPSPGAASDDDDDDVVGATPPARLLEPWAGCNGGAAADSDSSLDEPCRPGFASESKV

[18] = molecular target: 5-hydroxytryptamine receptor 6 (Homo sapiens) (UniProt P50406); conditions: Compound concentration 10.0 uM
5-hydroxytryptamine receptor 6 (Homo sapiens), sequence (P50406 whole entry): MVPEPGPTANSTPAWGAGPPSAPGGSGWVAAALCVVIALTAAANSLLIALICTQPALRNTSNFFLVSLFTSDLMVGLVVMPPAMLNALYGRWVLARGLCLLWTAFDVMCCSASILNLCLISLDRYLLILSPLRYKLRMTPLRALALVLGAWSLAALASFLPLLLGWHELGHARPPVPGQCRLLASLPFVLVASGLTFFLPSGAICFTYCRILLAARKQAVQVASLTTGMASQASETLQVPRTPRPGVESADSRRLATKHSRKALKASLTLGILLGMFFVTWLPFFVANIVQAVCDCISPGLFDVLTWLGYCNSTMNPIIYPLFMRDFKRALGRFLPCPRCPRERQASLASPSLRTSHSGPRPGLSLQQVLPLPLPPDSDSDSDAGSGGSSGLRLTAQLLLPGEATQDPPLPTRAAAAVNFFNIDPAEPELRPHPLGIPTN

Sodium-dependent dopamine transporter, sequence (Q01959 whole entry): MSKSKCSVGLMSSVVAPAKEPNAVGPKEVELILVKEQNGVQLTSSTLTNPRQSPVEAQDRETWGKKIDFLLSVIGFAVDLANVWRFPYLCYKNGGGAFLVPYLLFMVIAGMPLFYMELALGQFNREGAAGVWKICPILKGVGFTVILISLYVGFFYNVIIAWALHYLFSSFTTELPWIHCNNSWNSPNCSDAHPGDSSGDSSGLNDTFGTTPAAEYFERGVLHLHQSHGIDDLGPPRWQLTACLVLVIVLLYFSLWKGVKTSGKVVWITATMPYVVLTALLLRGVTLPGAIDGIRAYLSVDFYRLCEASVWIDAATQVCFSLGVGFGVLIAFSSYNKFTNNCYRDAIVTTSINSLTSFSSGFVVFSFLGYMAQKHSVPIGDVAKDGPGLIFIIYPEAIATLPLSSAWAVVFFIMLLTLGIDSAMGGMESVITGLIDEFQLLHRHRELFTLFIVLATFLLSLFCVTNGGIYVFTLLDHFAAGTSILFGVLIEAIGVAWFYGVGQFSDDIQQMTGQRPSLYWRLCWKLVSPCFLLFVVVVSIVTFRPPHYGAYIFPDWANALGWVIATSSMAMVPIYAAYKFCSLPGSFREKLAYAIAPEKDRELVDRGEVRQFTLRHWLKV

inhibition [1]	inhibition [2]	inhibition [3]	inhibition [4]	inhibition [5]	inhibition [6]	inhibition [7]	inhibition [8]	inhibition [9]	inhibition [10]	inhibition [11]	inhibition [12]	inhibition [13]	inhibition [14]	IC50 (Protein O-GlcNAcase)	inhibition [15]	inhibition [16]	inhibition [17]	inhibition [18]	SMILES
13.4%	22.2%	7.21%	-5.2%	3.53%	12.7%	8.4%	8.68%	-2.53%	11.6%	11.8%	8.3%	-5.53%	46.5%	0.0013 µM (active)	0.63%	2.36%	3.29%	14.3%	CC(=O)Nc1ncc(CN2CCC[C@H](Cc3cc(C)nc(C)c3)C2)s1 [JNJ-65355394]
81.9%	12.3%	52.3%	-3.57%	6.82%	17.8%	-9.98%	31.7%	4.01%	14.5%	8.67%	7.45%	8.78%	101%	> 10 µM (not active)	8.04%	-1.89%	4.41%	25.6%	CC(=O)Nc1nc(CN2CCC[C@H](Cc3cc(C)nc(C)c3)C2)cs1 [JNJ-73924149]
